For test [1], the target named is T1, α-glucosidase (Saccharomyces cerevisiae, UniProt P53341).
T1 construct: purchased Sigma-Aldrich Inc
Nature of the test: α-Glucosidase inhibitory assay (pNPG hydrolysis). The format is biochemical. The settings on record: for inhibition at 100 µM: read-out: α-Glucosidase Inhibition (%). The procedure:
In brief, 140 μL of phosphate buffer (0.2 M, pH 6.8) was added to the 96-well microplate wells, followed by the addition of 10 μL α-glucosidase solution (0.5 U/mL, Sigma-Aldrich Inc., Saint Louis, MO, USA) and 2 μL of the test compound. The control wells contained 2 μL of DMSO in place of the test sample, while the enzyme solution was replaced by an additional 10 μL of phosphate buffer in the background wells. After preincubation at 37 °C for 10 min, 48 μL of 2 mM p-nitrophenyl-α-D-glucopyranoside (pNPG) was introduced into each well. The reaction mixtures were incubated for 30 min before being terminated by adding 50 μL of 0.1 M Na2CO3 solution. Absorbance was measured at 405 nm using a microplate reader. […] All assays were performed in triplicate and repeated three times independently.

Test [2] has as its target T2, PTP1B (Homo sapiens, UniProt P18031).
T2 construct: purchased MedChemExpress LLC
T2 sequence (P18031 1-435): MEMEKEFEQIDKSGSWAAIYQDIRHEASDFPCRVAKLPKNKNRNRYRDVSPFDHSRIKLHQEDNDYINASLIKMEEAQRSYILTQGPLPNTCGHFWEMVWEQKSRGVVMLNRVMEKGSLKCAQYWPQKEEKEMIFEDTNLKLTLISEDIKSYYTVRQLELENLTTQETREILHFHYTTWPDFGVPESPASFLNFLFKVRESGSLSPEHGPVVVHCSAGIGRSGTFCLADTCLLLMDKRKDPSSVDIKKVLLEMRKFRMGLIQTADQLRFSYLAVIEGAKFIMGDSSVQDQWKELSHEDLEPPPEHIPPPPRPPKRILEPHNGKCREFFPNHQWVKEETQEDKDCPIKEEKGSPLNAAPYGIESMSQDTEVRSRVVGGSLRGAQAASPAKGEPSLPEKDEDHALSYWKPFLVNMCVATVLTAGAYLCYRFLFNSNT
Nature of the test: PTP1B inhibitory assay (pNPP hydrolysis). As to conditions: for IC50: mean ± SD of three independent experiments; for inhibition at 100 µM: percent inhibition at a concentration of 100 μM. It is filed as biochemical. The procedure:
The inhibitory activity against PTP1B was assessed via the p-nitrophenyl phosphate (pNPP) hydrolysis assay. The reaction buffer consisted of 50 mM citrate buffer (pH 6.0) supplemented with 0.1 M NaCl, 2 mM EDTA, and 1 mM DTT. Recombinant PTP1B enzyme (MedChemExpress LLC, Monmouth Junction, NJ, USA) was used at a concentration of 5 μg/mL, with 10 mM pNPP serving as the substrate. The enzymatic reaction was terminated by the addition of 1M NaOH.

Test [3] addresses T1, α-glucosidase. Description: Enzyme reversibility and kinetics analysis, α-glucosidase. It is filed as biochemical. How it is done: (§1) Reversibility was assessed by plotting the enzyme reaction velocity (v) against varying enzyme concentrations in the presence of different inhibitor concentrations. Lineweaver–Burk plots (1/v vs. 1/[S]) were constructed by measuring reaction velocities at multiple substrate concentrations with varying amounts of inhibitors. From these plots, inhibition type, as well as Michaelis–Menten constants Km and Vmax, were determined. Additionally, slopes and Y-intercepts of these reciprocal plots were also plotted against inhibitor concentrations to further characterize the inhibition constants Ki and Kis, respectively.

For test [4], the target named is T2, PTP1B. Description: Enzyme reversibility and kinetics analysis, PTP1B. It is filed as biochemical. The procedure:
as §1

In test [5] the test system is α-glucosidase. As to conditions: cited from earlier work; for α-Glucosidase inhibition (in words): affinity-directed fractionation-mass spectrometry.
Setting [6] is: read-out: α-Glucosidase IC50, mean ± SD of three independent experiments.
[7] abbreviates: secondary plot of Y-intercept from Lineweaver–Burk data.
The mark [8] stands for this setting: velocity vs enzyme concentration at different inhibitor levels.

Where two headings read alike, the source gives them in different places. Bounds are passed on as bounds.

For orientation: IC50 means the concentration that gives 50% inhibition. In general, inhibition refers to the share of the control response that was lost under treatment. A word on the Ki: it is the dissociation constant of the complex between target and ligand, obtained from inhibition or displacement.

T1 sequence (P53341 whole entry): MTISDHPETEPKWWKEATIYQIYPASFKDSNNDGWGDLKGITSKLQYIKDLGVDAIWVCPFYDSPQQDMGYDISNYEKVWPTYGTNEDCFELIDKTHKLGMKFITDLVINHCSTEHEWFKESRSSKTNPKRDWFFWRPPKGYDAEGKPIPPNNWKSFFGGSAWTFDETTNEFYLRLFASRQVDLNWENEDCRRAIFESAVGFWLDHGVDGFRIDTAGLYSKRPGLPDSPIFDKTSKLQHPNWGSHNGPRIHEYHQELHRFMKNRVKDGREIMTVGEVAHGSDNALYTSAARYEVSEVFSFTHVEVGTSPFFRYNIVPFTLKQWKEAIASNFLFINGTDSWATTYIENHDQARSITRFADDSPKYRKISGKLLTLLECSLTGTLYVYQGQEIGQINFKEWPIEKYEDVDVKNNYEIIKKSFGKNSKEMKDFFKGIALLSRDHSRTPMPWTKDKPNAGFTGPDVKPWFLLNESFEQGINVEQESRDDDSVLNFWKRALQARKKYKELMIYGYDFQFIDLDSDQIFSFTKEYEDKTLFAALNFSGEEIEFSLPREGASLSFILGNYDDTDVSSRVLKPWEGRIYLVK

For `CCCC[C@@H](CCCCCCCCCC(=O)OC)O[C@@H]1O[C@H](CO)[C@@H](O)[C@H](O)[C@H]1O[C@@H]1O[C@@H](C)[C@H](O[C@@H]2O[C@@H](C)[C@H](O[C@@H]3O[C@@H](C)[C@H](O)[C@@H](O[C@@H]4O[C@H](CO)[C@@H](O)[C@H](O)[C@H]4O)[C@H]3O)[C@@H](O)[C@H]2O)[C@@H](O)[C@H]1O` [Compound 1, Cusponin I], the IC50 at α-glucosidase [1] (setting [6]) was 38.2 ± 3.36 µM; against PTP1B [2], more than 100 µM. For the same molecule, the inhibition at 100 µM on α-glucosidase [1] came to 68.7 ± 4.11%; against PTP1B [2], 5.41 ± 0.67%.
With `CCCCC[C@@H](CCCCCCCCCC(=O)OC)O[C@@H]1O[C@H](CO)[C@@H](O)[C@H](O)[C@H]1O[C@@H]1O[C@@H](C)[C@H](O[C@@H]2O[C@@H](C)[C@H](O[C@@H]3O[C@@H](C)[C@H](O)[C@@H](O[C@@H]4O[C@H](CO)[C@@H](O)[C@H](O)[C@H]4O)[C@H]3O)[C@@H](O)[C@H]2O)[C@@H](O)[C@H]1O` [Compound 2, Cusponin II], the “Inhibition type, α-glucosidase” value at α-glucosidase [3] (Lineweaver–Burk plots) is recorded as “uncompetitive”. For the same molecule, the “Vmax of α-glucosidase in presence of inhibitor” value on α-glucosidase [3] (at 16 μM compound 2 (0.115 at 0 μM)) was determined as 0.021. Further, the “Inhibition constant Kis (enzyme–substrate complex), α-glucosidase” value at α-glucosidase [3] (setting [7]) worked out at 3.02 µM. The “Reversibility of α-glucosidase inhibition” value at α-glucosidase [3] (setting [8]) is given as “reversible”. For the same molecule, at α-glucosidase [1], the IC50 stood at 8.02 ± 2.9 µM and the inhibition at 100 µM was determined as 83 ± 0.84%. Moreover, on PTP1B [2], the concentration for half-maximal inhibition (IC50) is more than 100 µM and the inhibition at 100 µM was 3.26 ± 0.16%.
Consider `CCCC[C@@H](CCCCCCCCCC(=O)OC)O[C@@H]1O[C@H](CO)[C@@H](O)[C@H](O)[C@H]1O[C@@H]1O[C@@H](C)[C@H](O[C@@H]2O[C@@H](C)[C@H](O[C@@H]3O[C@@H](C)[C@H](O)[C@@H](O)[C@H]3O)[C@@H](O[C@@H]3O[C@H](CO)[C@@H](O)[C@H](O)[C@H]3O)[C@H]2O)[C@@H](O)[C@H]1O` [Compound 3, Cusponin III], for which the “Inhibition type, PTP1B” value on PTP1B [4] (Lineweaver–Burk plot) is “mixed-type”. In addition, the “Vmax of PTP1B in presence of inhibitor” value at PTP1B [4] (at 25 μM compound 3 (0.104 at 0 μM)) is on record as 0.075. Further, the “Inhibition constant Kis (enzyme–substrate complex), PTP1B” value at PTP1B [4] (setting [7]) was 64.24 µM. Moreover, at PTP1B [4] (secondary plot of slope from Lineweaver–Burk data, read-out: Inhibition constant Ki (free enzyme), PTP1B), the Ki stood at 24.8 µM. Besides, the “Reversibility of PTP1B inhibition” value on PTP1B [4] (setting [8]) is “reversible”. For the same molecule, the half-inhibitory concentration (IC50) came out at 64.9 ± 2.97 µM on α-glucosidase [1] (setting [6]) and 14.2 ± 1.29 µM on PTP1B [2]. Moreover, the results for the inhibition at 100 µM on α-glucosidase [1] and against PTP1B [2] were 67.1 ± 1.18% and 89.2 ± 2.55%, respectively.
Consider `CCCC[C@@H](CCCCCCCCCC(=O)OC)O[C@@H]1O[C@H](C)[C@H](O)[C@H](O)[C@H]1O[C@@H]1O[C@@H](C)[C@H](O[C@@H]2O[C@@H](C)[C@H](O[C@@H]3O[C@@H](C)[C@H](O)[C@@H](O)[C@H]3O)[C@@H](O[C@@H]3O[C@H](CO)[C@@H](O)[C@H](O)[C@H]3O)[C@H]2O)[C@@H](O)[C@H]1O` [Compound 4, Cusponin IV], for which the IC50 at α-glucosidase [1] (setting [6]) is 55.5 ± 6.89 µM; at PTP1B [2], more than 100 µM. Further, the inhibition at 100 µM on α-glucosidase [1] was determined as 66.5 ± 3.65%; at PTP1B [2], 15 ± 2.45%.
In the same order, the values of `CCCC[C@@H](CCCCCCCCCC(=O)OC)O[C@@H]1O[C@H](C)[C@H](O)[C@H](O)[C@H]1O[C@@H]1O[C@H](CO)[C@@H](O)[C@H](O[C@@H]2O[C@H](CO)[C@@H](O)[C@H](O)[C@H]2O)[C@H]1O[C@@H]1O[C@@H](C)[C@H](OC(=O)[C@H](C)[C@@H](C)OC(=O)[C@H](C)[C@@H](C)O)[C@@H](O)[C@H]1O` [Compound 5, Cusponin V] are more than 100 µM, 62.3 ± 8.61 µM, 51.8 ± 1.77% and 52.7 ± 4.6%.
In the same order, the values of `CCCC[C@@H](CCCCCCCCCC(=O)OC)O[C@@H]1O[C@H](C)[C@H](O)[C@H](O)[C@H]1O[C@@H]1O[C@H](CO)[C@@H](O)[C@H](O[C@@H]2O[C@H](CO)[C@@H](O)[C@H](O)[C@H]2O)[C@H]1O[C@@H]1O[C@@H](C)[C@H](OC(=O)[C@H](C)[C@@H](C)O)[C@@H](O)[C@H]1O` [Compound 6, Cusponin VI] are 71.4 ± 3.23 µM, more than 100 µM, 60.5 ± 5.42% and 29.9 ± 4.5%.
In the same order, the values of `CCCC[C@@H](CCCCCCCCCC(=O)OC)O[C@@H]1O[C@H](C)[C@H](O)[C@H](O)[C@H]1O[C@@H]1O[C@H](CO)[C@@H](O)[C@H](O[C@@H]2O[C@H](CO)[C@@H](O)[C@H](O)[C@H]2O)[C@H]1O[C@@H]1O[C@@H](C)[C@H](O)[C@@H](O)[C@H]1O` [Compound 7, Cusponin VII] are more than 100 µM, more than 100 µM, 49.4 ± 1.71% and 15.9 ± 2.92%.
Consider `CCCCC[C@@H](CCCCCCCCCC(=O)OC)O[C@@H]1O[C@H](CO)[C@@H](O)[C@H](O)[C@H]1O[C@@H]1O[C@@H](C)[C@H](O[C@@H]2O[C@@H](C)[C@H](O[C@@H]3O[C@@H](C)[C@H](O)[C@@H](O)[C@H]3O)[C@@H](O[C@@H]3O[C@H](CO)[C@@H](O)[C@H](O)[C@H]3O)[C@H]2O)[C@@H](O)[C@H]1O` [Compound 8, operculinic acid B methyl ester], for which the half-maximal inhibitory concentration (IC50) was 65.1 ± 9.41 µM on α-glucosidase [1] (setting [6]) and more than 100 µM against PTP1B [2]. Moreover, the inhibition at 100 µM on α-glucosidase [1] was determined as 64.6 ± 3.12%; at PTP1B [2], 7.78 ± 1.98%.
For the molecule `C[C@H]1[C@H](C)CC[C@]2(C(=O)O)CC[C@]3(C)C(=CC[C@@H]4[C@@]5(C)CC[C@H](O)C(C)(C)[C@@H]5CC[C@]43C)[C@H]12` [Ursolic acid, ursolic acid, reference compound], 100 µM produced 90.4 ± 5.23% inhibition against PTP1B [2].
`CCC[C@H]1CCCCCCCCCC(=O)O[C@H]2[C@H](O[C@H]3[C@H](O)[C@@H](C)O[C@@H](O[C@H]4[C@H](O1)O[C@H](C)[C@@H](O)[C@@H]4O)[C@@H]3O[C@@H]1O[C@@H](C)[C@H](OC(C)=O)[C@@H](O)[C@H]1O)O[C@H](C)[C@@H](O)[C@@H]2OC(=O)[C@H](C)[C@@H](C)O` [albinoside VII]: in the test with α-glucosidase [5], the “α-Glucosidase inhibition (in words)” value is “potent α-glucosidase inhibitors”.
For the molecule `CCC[C@H]1CCCCCCCCCC(=O)O[C@H]2[C@H](OC[C@H]3O[C@@H](O[C@H]4[C@H](O1)O[C@H](C)[C@@H](O)[C@@H]4O)[C@H](O[C@@H]1O[C@@H](C)[C@H](OC(C)=O)[C@@H](O)[C@H]1O)[C@@H](O)[C@@H]3O)O[C@H](C)[C@@H](O)[C@@H]2OC(=O)[C@H](C)[C@@H](C)O` [albinoside VI], the “α-Glucosidase inhibition (in words)” value with α-glucosidase [5] is reported as “potent α-glucosidase inhibitors”.
For the molecule operculinic acid A, on α-glucosidase [5] (from Ipomoea biflora), the IC50 was 78.3 µM.
